Assay results from ChEMBL document CHEMBL1128125, “Inhibitors of Acyl-CoA:Cholesterol O-acyltransferase (ACAT) as hypocholesterolemic agents 14. synthesis and structure-activity relationships of a novel series of sulfonamide tetrazoles” (Bioorg Med Chem Lett, 1995).

Assays:
[1] = Inhibition of Acyl coenzyme A:cholesterol acyltransferase (ACAT); design: species or system Oryctolagus cuniculus
Rattus norvegicus [2] = assay: Tested in vivo for its effect on changing plasma cholesterol level in rats at a dose of 30 mg/kg; format: functional
Rattus norvegicus [3] = assay: Tested in vivo for its effect on changing plasma cholesterol level in rats at a dose of 3 mg/kg; format: functional

IC50 [1] | Compound | Delta TC (Rattus norvegicus [2]) | Delta TC (Rattus norvegicus [3])
22 nM | CCCCCCCCCCCCn1nnc(CS(=O)(=O)Nc2c(C(C)C)cccc2C(C)C)n1 | -67% | -59%
750 nM | CCCCCCCCn1nnc(CS(=O)(=O)Nc2c(C(C)C)cccc2C(C)C)n1 | -14% | –
180 nM | CCCCCCCCCCCCn1nnc(CS(=O)(=O)Nc2c(OC)cc(OC)cc2OC)n1 | -60% | –
57 nM | CCCCCCCCCCCCn1nnc(C(Cc2ccccc2)S(=O)(=O)Nc2c(C(C)C)cccc2C(C)C)n1 (stereo unspecified) | -27% | –
150 nM | CCCCCCCCCCCCCCn1nnc(CS(=O)(=O)Nc2c(C(C)C)cccc2C(C)C)n1 | -42% | –
2.6 nM | CCCCCCCCCCCCn1nnc(CC(=O)Nc2c(C(C)C)cccc2C(C)C)n1 | -64% | -62%
690 nM | CCCCCCCCCCCCCCCCS(=O)(=O)Nc1c(OC)cc(OC)cc1OC | – | -31%
32 nM | CCCCCCCCCCCCn1nnc(C(C)S(=O)(=O)Nc2c(C(C)C)cccc2C(C)C)n1 (stereo unspecified) | -67% | –
3700 nM | CCCCCCCCCCCCn1nnnc1CS(=O)(=O)Nc1c(OC)cc(OC)cc1OC | -30% | –
1200 nM | CCCCCCCCCCCCn1nnnc1CS(=O)(=O)Nc1c(C(C)C)cccc1C(C)C | -41% | –
52 nM | CCCCCCCCCCCCCCCCCC(=O)Nc1c(OC)cc(OC)cc1OC | -11% | -31%
40 nM | CCCCCCCCCCCCn1nnc(C(C)(C)S(=O)(=O)Nc2c(C(C)C)cccc2C(C)C)n1 | -53% | –
600 nM | CCCCCCCCCCCCCCCCn1nnc(CS(=O)(=O)Nc2c(C(C)C)cccc2C(C)C)n1 | -20% | –
7600 nM | CCCCCCCCCCCCCCCCCCn1nnc(CS(=O)(=O)Nc2c(C(C)C)cccc2C(C)C)n1 | -31% | –
